Source: patent US10851129B2, “Composition, crocins active site, and uses thereof” (Jinan University, priority 2016, dated 2020)

Tested on: SH-SY5Y nerve cells
Assay: Neuroprotection in SH-SY5Y cell damage model induced by L-glutamic acid (MTT)
Assay type: cell-based
Settings: L-glutamic acid 160 mM, 24 h, effective rate %
Protocol: SH-SY5Y nerve cells were cultured in DMEM medium (containing 5% fetal calf serum by volume fraction) which were placed in an incubator containing 5% CO2 under 37° C. They were subcultured once every 3-4 days. Cells in logarithmic phase were used for test
SH-SY5Y cells were inoculated in a 96-well plate at a concentration of 5×10^3 and continued to culture for 24 h. […] 3 parallel wells were arranged for each concentration. They were continued to culture for 24 h. 24 h later, the supernatant was pipetted out and discarded. 100 μL MTT (0.5 mg/mL) was added into each well. They were further incubated for 4 h. Then the supernatant was pipetted out and discarded. 150 μL DMSO was added into each well. They were vibrated for 10 min. A wavelength of 570 nm was selected. The absorbance value was measured on a microplate reader^[13]. (effective rate %=(ODdrug−ODmodel)/(ODcontrol−ODmodel)*100).

Compound | Neuroprotective effective rate (recovery of viability relative to glutamate model) (drug 10^−5 moL/L) [%] | Neuroprotective effective rate (recovery of viability relative to glutamate model) (drug 10^−6 moL/L) [%] | Neuroprotective effective rate (recovery of viability relative to glutamate model) (drug 10^−7 moL/L) [%]
CC(/C=C/C=C(\C)C(=O)O[C@@H]1OC(CO)[C@@H](O)C(O)C1O)=C\C=C\C=C(C)\C=C\C=C(/C)C(=O)O[C@@H]1OC(CO[C@@H]2OC(CO)[C@@H](O)C(O)C2O)[C@@H](O)C(O)C1O (stereo partly drawn) [Compound 2, crocetin-β-D-glucopyranosyl-β-D-gentiobioside] | 0.00 ± 0.00 | 0.00 ± 0.00 | 0.00 ± 0.00
CC(/C=C/C=C(\C)C(=O)O[C@@H]1OC(CO)[C@@H](O)C(O)C1O)=C\C=C\C=C(C)\C=C\C=C(/C)C(=O)O[C@@H]1OC(CO)[C@@H](O)C(O)C1O (stereo partly drawn) [Compound 3, crocetin di-β-D-glucopyranoside] | 0.00 ± 0.00 | 0.00 ± 0.00 | 0.00 ± 0.00
CC(/C=C/C=C(\C)C(=O)O[C@@H]1O[C@H](CO[C@@H]2O[C@H](CO)[C@@H](O)[C@H](O)[C@H]2O)[C@@H](O)[C@H](O)[C@H]1O)=C\C=C\C=C(C)\C=C\C=C(/C)C(=O)O[C@@H]1[C@H](O)C[C@@](O)(C(=O)O)C[C@H]1OC(=O)/C=C/c1ccc(O)c(O)c1 [Compound 5, neocrocin B] | 40.03 ± 3.91 | 27.63 ± 5.36 | 9.89 ± 2.93
CC(/C=C/C=C(\C)C(=O)O)=C\C=C\C=C(C)\C=C\C=C(/C)C(=O)O[C@@H]1OC(CO)[C@@H](O)C(O)C1O (stereo partly drawn) [Compound 9, crocetin mono-β-D-glucopyranoside] | 0.00 ± 0.00 | 0.00 ± 0.00 | 0.00 ± 0.00
